The values that follow come from patent US9999620B2, “CaMKK-β as a target for treating cancer” (Duke University, priority 2010, dated 2018).

The test system of experiment [1] is LNCaP cells. The experiment in a line: Boyden dual chamber migration assay. The class given is cell-based, human. As to conditions: 1 h +/-30 mM STO-609, overnight +/-10 nM R1881, 16 h migration, 5% FBS chemoattractant. Here is the method: FIG. 7. CaMKKβ activity in the androgen-mediated migration and invasion of prostate cancer cells. A, LNCaP cells were plated in 96-well plates and grown for 3 d. […] On d 10, cells were lysed and the relative number of cells was measured with the fluorescent DNA binding dye FluoReporter Blue. Each sample was performed in triplicate, and results from a representative experiment are shown. […] Cells were then dissociated and reseeded into the top chamber for a Boyden migration or Matrigel extracellular matrix invasion assay. Fresh medium with the corresponding treatments was added to the top and bottom chambers while either no chemoattractant or 5% FBS (serum) was added to the bottom chamber. After 16 h, migrated cells were fixed, stained and counted in three different microscopic fields and added together. […] C top, LNCaP cells were transfected with indicated siRNAs. […] D right, LNCaP cells stably expressing either GAL4 (control) or CaMKKβ were subjected to a migration assay as described in B using +/-5% FBS as chemoattractant. The results are expressed as mean+SE (n=3). *, significant changes from LNCaP-GAL4 cells. D left, western blot confirming CaMKKβ […]expression. FIG. 11. Androgen-mediated migration occurs through a CaMKKβ-AMPK-dependent pathway. […] Results are expressed as fold induction/phosphorylation over double vehicle-treated cells+SE (n=3). *, significant changes from vehicle-treated cells. […] Results are expressed as fold induction/phosphorylation over LNCaP-GAL4 vehicle-treated cells+SE (n=3). *, significant changes from LNCaP-GAL4 vehicle-treated cells. […] The results are expressed as mean±SE (n=2). *, P<0.05 indicates significant changes from double vehicle-treated cells. ^#, P<0.05 indicates significant decreases from vehicle (no compound C)-treated cells. […] ACC is a direct target of AMPK and thus, was used as a readout of AMPK catalytic activity. […] Results are expressed as fold induction/phosphorylation over double vehicle-treated cells+SE (n=2). *, P<0.05 indicates significant changes from double vehicle-treated cells. […]

The subject of experiment [2] is LNCaP cells. The experiment in a line: Cell proliferation assay (FluoReporter Blue DNA content). The class given is cell-based, human. As to conditions: +/-1 nM R1881 and +/-30 mM STO-609 on d 3, d 5, d 7, read on d 10. As to the method: FIG. 7. CaMKKβ activity in the androgen-mediated migration and invasion of prostate cancer cells. A, LNCaP cells were plated in 96-well plates and grown for 3 d. […] On d 10, cells were lysed and the relative number of cells was measured with the fluorescent DNA binding dye FluoReporter Blue. Each sample was performed in triplicate, and results from a representative experiment are shown. […] Cells were then dissociated and reseeded into the top chamber for a Boyden migration or Matrigel extracellular matrix invasion assay. Fresh medium with the corresponding treatments was added to the top and bottom chambers while either no chemoattractant or 5% FBS (serum) was added to the bottom chamber. After 16 h, migrated cells were fixed, stained and counted in three different microscopic fields and added together. […] C top, LNCaP cells were transfected with indicated siRNAs. […] D right, LNCaP cells stably expressing either GAL4 (control) or CaMKKβ were subjected to a migration assay as described in B using +/−5% FBS as chemoattractant. The results are expressed as mean+SE (n=3). *, significant changes from LNCaP-GAL4 cells. D left, western blot confirming CaMKKβ […]expression. […] Proliferation assays were performed as previously described (12) by measuring the cellular DNA content using the FluoReporter Blue Fluorometric double-stranded DNA Quantitation Kit (Invitrogen) as per the manufacturer's protocol.

In the case of `O=C(O)c1ccc2c3c1cccc3c(=O)n1c3ccccc3nc21` [STO-609], the androgen-mediated migration entry in the experiment with LNCaP cells [1] is “blocked the androgen-mediated migration”. The “effect on cell number (androgen-mediated cellular growth)” value in the experiment on LNCaP cells [2] is recorded as “no significant effect”.
